According to US4654362A, “Derivatives of 2,2'-iminobisethanol” (Janssen Pharmaceutica, N.V., priority 1984, dated 1987):

How the values were obtained:
guinea pig atrium (β1) = target: T1, guinea pig atrium (β1) (Cavia porcellus, UniProt H0W3H1); assay: Guinea-pig right atrium test: inhibition of isoprenaline-induced increase in heart rate (β1-adrenergic receptor blocking activity, in vitro); conditions: isolated right atrium, 30 min incubation, 37.5° C., estimated graphically, read-out: ED50 value on guinea pig atrium (β1) (converted)
T1 construct: Spontaneously beating right atria were dissected from guinea-pigs; from tissue; host or cells: guinea-pig right atrium (strip including the sinoatrial node)
Description: 1. Guinea-pig right atrium (β1)
Spontaneously beating right atria were dissected from guinea-pigs (400±50 g). A triangular strip of atrium, including the sinoatrial node was excised together with the anterior vena cava.
The vena was fixed to a glass muscle holder and the opposite atrial muscle was connected to a Grass isometric transducer. […] Heart rate and contractile force were recorded by means of a Grass FT03C isometric transducer. Output signals amplified by an isometric transducer amplifier (J.S.I.) via a cardiotachometer (J.S.I.) were recorded on Honeywell XYY' recorder.
After washing out isoprenaline a stabilisation period of 15 min. was allowed. A drug was then added to the bath fluid for 30 min. During this incubation period possible direct chronotropic and inotropic effects of the drug were determined. Following this, a second dose-response curve for isoprenaline was produced by infusion during 10 minutes (b). The slope of the increase in rate was graphically estimated for each period of isoprenaline addition and the ratio b/a was calculated. Based on solvent experiments a ratio of less than 0.70 was considered as the criterion of inhibitory activity. ED50 -values were estimated graphically.

guinea pig trachea (β2) = target: T2, guinea pig trachea (β2) (Cavia porcellus, UniProt Q8K4Z4); assay: Guinea-pig tracheal ring test: inhibition of isoprenaline-induced relaxation (β2-adrenergic receptor blocking activity, in vitro); conditions: for β2 /β1: ratio of ED50 trachea (β2) to ED50 right atrium (β1), index of cardioselectivity; for IC50: tracheal ring, methacholine 1 μg/ml, isoprenaline 0.08 μg/ml, 30 min, 35° C., probit analysis, read-out: ED50 value on guinea pig trachea (β2) (converted)
T2 construct: The trachea was dissected from guinea-pigs; from tissue; host or cells: guinea-pig tracheal rings (tracheal smooth muscle)
Description: 2. Guinea-pig tracheal ring (β2)
The trachea was dissected from guinea-pigs (400±50 g). Four rings, approximately 8 mm. in width, were then cut from each trachea. Cartilaginous parts of the tracheal ring were mounted horizontally between two metal rods, one of which was attached to a glass organholder, the other rod being connected to a Grass isometric transducer. Using such a technique the tracheal smooth muscle is suspended optimally i.e. midway between the cartilaginous parts. […] The preparation was maintained at tension of 1.5 g throughout the experiment. Tension changes recorded were thus an expression of contraction or relaxation. After a stabilisation period of 30 min. contraction was induced by adding methacholine (1 μg/ml) to the bath for a 10 min. period. […] This procedure was repeated twice before adding the drug (t-33'; t-19') and once 30 min. after addition of the drug. During the incubation period any direct effects of the drug were measured.
The ratio of the ED50 -values obtained in respectively the tracheal ring test (β2) and in the right atrium test (β1) may be considered as an index of the cardioselectivity of the test drug.

T2 sequence (Q8K4Z4 whole entry): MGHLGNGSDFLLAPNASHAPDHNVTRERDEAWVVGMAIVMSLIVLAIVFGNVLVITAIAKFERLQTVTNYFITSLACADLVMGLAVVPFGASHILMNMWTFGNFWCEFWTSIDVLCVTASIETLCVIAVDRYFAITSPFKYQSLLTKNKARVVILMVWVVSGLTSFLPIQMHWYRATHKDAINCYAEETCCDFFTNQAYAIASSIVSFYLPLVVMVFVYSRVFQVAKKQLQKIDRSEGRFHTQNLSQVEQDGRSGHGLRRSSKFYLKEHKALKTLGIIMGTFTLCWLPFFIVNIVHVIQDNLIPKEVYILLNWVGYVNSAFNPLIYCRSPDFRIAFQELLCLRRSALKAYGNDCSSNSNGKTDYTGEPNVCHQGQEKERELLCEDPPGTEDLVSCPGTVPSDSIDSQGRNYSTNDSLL
T1 sequence (H0W3H1 1-470): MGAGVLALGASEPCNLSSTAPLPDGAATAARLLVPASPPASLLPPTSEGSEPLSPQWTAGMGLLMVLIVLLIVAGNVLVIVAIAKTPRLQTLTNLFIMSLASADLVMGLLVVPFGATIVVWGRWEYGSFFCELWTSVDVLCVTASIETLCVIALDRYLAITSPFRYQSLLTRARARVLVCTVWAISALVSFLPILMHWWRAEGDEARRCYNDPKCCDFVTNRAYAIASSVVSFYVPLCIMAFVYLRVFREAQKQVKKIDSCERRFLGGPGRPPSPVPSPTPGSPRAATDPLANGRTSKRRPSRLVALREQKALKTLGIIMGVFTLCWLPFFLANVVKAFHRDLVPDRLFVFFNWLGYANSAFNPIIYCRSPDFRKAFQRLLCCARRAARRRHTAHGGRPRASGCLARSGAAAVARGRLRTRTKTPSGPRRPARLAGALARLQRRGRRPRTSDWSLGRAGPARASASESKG

SMILES | β2 /β1 (guinea pig trachea (β2)) | IC50 (guinea pig trachea (β2)) [nM] | IC50 (guinea pig atrium (β1)) [nM]
OC(CNCC(O)C1CCc2cc(Br)ccc2O1)C1CCc2cc(Br)ccc2O1 (stereo not drawn) [Compound 10, (B,B)-α,α'-[iminobismethylene]bis[6-bromo-3,4-dihydro-2H-1-benzopyran-2-methanol]] |  |  | 75.9
OC(CNCC(O)C1CCc2cc(Br)ccc2O1)C1CCc2ccccc2O1 (stereo not drawn) [Compound 63] |  |  | < 89.2
OC(CNCC(O)C1CCc2ccccc2O1)C1CCc2ccccc2O1 (stereo not drawn) [Compound 74, (A^+ A^+)-α,α'-[iminobis(methylene)]bis[3,4-dihydro-2H-1-benzopyran-2-methanol]] | 12,500 | 8120 | 0.65
OC(CNCC(O)C1CCc2ccccc2O1)C1CCc2ccccc2O1 (stereo not drawn) [Compound 75] | 2,154 | 7580 | 3.52
OC(CNCC(O)C1CCc2cc(F)ccc2O1)C1CCc2cc(F)ccc2O1 (stereo not drawn) [Compound 84] |  | > 24700 | 
Cc1ccc2c(c1)CCC(C(O)CNCC(O)C1CCc3cc(C)ccc3O1)O2 (stereo not drawn) [Compound 85] | 5,652 | 3270 | 0.579
CC(O)(CNCC(C)(O)C1CCc2ccccc2O1)C1CCc2ccccc2O1 (stereo not drawn) [Compound 86] | 4,166 | 12600 | 3.02
CC(O)(CNCC(O)C1CCc2ccccc2O1)C1CCc2ccccc2O1 (stereo not drawn) [Compound 92] | 12,500 | 13000 | 1.04
CC(=O)Nc1ccc2c(c1)CCC(C(O)CNCC(O)C1CCc3ccccc3O1)O2 (stereo not drawn) [Compound 94] |  |  | ≥ 5.86
CC(=O)Nc1ccc2c(c1)CCC(C(O)CNCC(O)C1CCc3ccccc3O1)O2 (stereo not drawn) [Compound 95] | 129 | 93.8 | 0.727
CC(=O)Nc1ccc2c(c1)CCC(C(O)CNCC(O)C1CCc3ccccc3O1)O2 (stereo not drawn) [Compound 96] | 108 | 328 | 3.05
Cc1cc(C)c2c(c1)OC(C(O)CNCC(O)C1CCc3ccccc3O1)CC2 (stereo not drawn) [Compound 103] | > 4000 | > 25200 | 6.29
Cc1cc(C)c2c(c1)OC(C(O)CNCC(O)C1CCc3ccccc3O1)CC2 (stereo not drawn) [Compound 104] | > 1923 | > 6290 | 3.27
Cc1cc(C)c2c(c1)OC(C(O)CNCC(O)C1CCc3ccccc3O1)CC2 (stereo not drawn) [Compound 106] | > 1000 |  | 
OC(CNCC(O)C1CCc2ccc3c(c2O1)CCCC3)C1CCc2ccccc2O1 (stereo not drawn) [Compound 110] |  |  | 5.9
Cc1ccc2c(c1)CCC(C(O)CNCC(O)C1CCc3cc(C)ccc3O1)O2 (stereo not drawn) [Compound 113] |  |  | 6.29
Oc1ccc2c(c1)CCC(C(O)CNCC(O)C1CCc3cc(O)ccc3O1)O2 (stereo not drawn) [Compound 133] |  |  | 1.57
CS(=O)(=O)Nc1ccc2c(c1)CCC(C(O)CNCC(O)C1CCc3ccccc3O1)O2 (stereo not drawn) [Compound 135] |  |  | 136
CC1(C(O)CNCC(O)C2CCc3ccccc3O2)CCc2ccccc2O1 (stereo not drawn) [Compound 140, (A,B)-α-[[[2-(3,4-dihydro-2H-1-benzopyran-2-yl)-2-hydroxyethyl]amino]methyl]-3,4-dihydro-2-methyl-2H-1-benzopyran-2-methanol ethanedioate (1:1). monohydrate] |  |  | ≤ 6.52

Second part, led by results:

β2 /β1 (guinea pig trachea (β2)) | IC50 (guinea pig trachea (β2)) [nM] | SMILES | IC50 (guinea pig atrium (β1)) [nM]
> 252 | > 1600 | N#Cc1ccc2c(c1)CCC(C(O)CNCC(O)C1CCc3ccccc3O1)O2 (stereo not drawn) [Compound 51] | 6.34
2,614 | 5950 | OC(CNCC(O)C1CCc2ccccc2O1)C1CCc2ccccc2O1 (stereo not drawn) [Compound 76] | 2.3
4,074 |  | OC(CNCC(O)C1CCc2ccccc2O1)C1CCc2ccccc2O1 (stereo not drawn) [Compound 77] | 1.46
13,157 | 6770 | OC(CNCC(O)C1CCc2ccccc2O1)C1CCc2ccccc2O1 (stereo not drawn) [Compound 79] | 0.514
3,938 | 1710 | OC(CNCC(O)C1CCc2ccccc2O1)C1CCc2ccccc2O1 (stereo not drawn) [Compound 81] | 0.433
> 1,000 | > 6770 | OC(CNCC(O)C1CCc2ccccc2O1)C1CCc2ccccc2O1 (stereo not drawn) [Compound 82] | 6.77
> 5,435 |  | OC(CNCC(O)C1CCc2ccccc2O1)C1CCc2ccccc2O1 (stereo not drawn) [Compound 83] | 1.25
 | ≥ 27100 | OC(CNCC(O)C1CCc2ccccc2O1)C1CCc2ccccc2O1 (stereo not drawn) [Compound 88] | 
20,698 | 23200 | Cc1ccc2c(c1)CCC(C(O)CNCC(O)C1CCc3ccccc3O1)O2 (stereo not drawn) [Compound 89] | 1.12
≥ 25,000 | ≥ 26100 | Cc1ccc2c(c1)CCC(C(O)CNCC(O)C1CCc3ccccc3O1)O2 (stereo not drawn) [Compound 90] | 1.04
6,250 | 12900 | OC(CNCC(O)C1CCc2cc(F)ccc2O1)C1CCc2ccccc2O1 (stereo not drawn) [Compound 91] | 2.06
13,750 | 5740 | Cc1ccc2c(c1)CCC(C(O)CNCC(O)C1CCc3ccccc3O1)O2 (stereo not drawn) [Compound 93] | 0.417
7,042 | 13000 | Cc1ccc2c(c1)OC(C(O)CNCC(O)C1CCc3ccccc3O1)CC2 (stereo not drawn) [Compound 97] | 1.85
2,400 | 15600 | Cc1ccc2c(c1)OC(C(O)CNCC(O)C1CCc3ccccc3O1)CC2 (stereo not drawn) [Compound 98] | 6.52
≥ 15,873 | ≥ 26100 | Cc1ccc2c(c1)OC(C(O)CNCC(O)C1CCc3ccccc3O1)CC2 (stereo not drawn) [Compound 99] | 1.64
1000 | 804 | Oc1ccc2c(c1)CCC(C(O)CNCC(O)C1CCc3ccccc3O1)O2 (stereo not drawn) [Compound 130] | 0.804
> 1000 | > 27100 | OC(CNCC(O)C1CCc2ccccc2O1)C1CCc2ccccc2O1 (stereo not drawn) [Compound 138, (A,A)-α-[[[2-(3,4-dihydro-2H-1-benzopyran-2-yl)-2-hydroxyethyl]amino]methyl]-3,4-dihydro-2H-1-benzopyran-2-methanol ethanedioate (1:1)] | 27.1
